Experimental data taken from patent US5434155A, “Quinoline derivative fumarates” (priority 1992, dated 1995).
Converted amounts (≈) assume the structure as drawn. Read-outs that look alike come from different tables or passages of the source.

Assays:
[1] = Oral absorbability test in mice (drug concentration in plasma); design: species or system 7-Week-old female CDF1 mice; conditions: mouse, in vivo
Method: 7-Week-old female CDF1 mice were fasted one night before the administration of the test drugs. The drugs were suspended in an aqueous 0.1% TWEEN 80 solution for administration and were forcefully administered in an amount of 100 mg/kg (for the compound No. 2 of Example 1-(c)) and 109 mg/kg (for the compound No. 4 of Comparative Example 1) so as to get the equivalent molarity using a probe for oral administration. Three animals were used for each test group. Blood samples were taken 4 times; 0.5, 1.0, 2.0 and 4.0 hours after the administration. Blood samples were taken by cardiocentesis under anesthesia with chloroform using a heparin-treated disposable injection syringe, Each blood was centrifuged at 4° C. at 6000 rpm for 10 minutes to obtain plasma. Drug concentrations in plasma were measured using HPLC and then calculated from a calibration curve for a standard sample, Results are shown in the following Tables.

[2] = system: Vincristine-resistant mouse leukemia cells, P388/VCR; assay: Carcinostatic-effect-stimulating activity (IC50 of vincristine on vincristine-resistant cells); format: cell-based; conditions: 72 h, read-out: IC50 of vincristine
Method: Carcinostatic-effect-stimulating activity
Vincristine-resistant mouse leukemia cells, P388/VCR, were suspended at a concentration of 2×10^4 cells/ml in an RPMI-1640 medium solution containing […]. 2 ml of the cancer cell suspension per tube (12×75 mm) were inoculated and incubated at 37° C. in a 5% CO2 atmosphere. After 6 hours, vincristine and the compound No. 2 of Example 1-(c) at a concentration of 0.3, 1 or 3 microgram/ml and the incubation was continued at 37° C. under a 5% CO2 atmosphere for 72 hours. The cell culture was added to 9.5 ml of ISOTON II, the number of cells was counted using a call counter and then 50% growth inhibiting concentrations of vincristine IC50 (ng/ml) were calculated.

[3] = Oral absorbability in dogs (drug concentration in plasma); format: in vivo, Male beagles (dog); conditions: dog
Method: Male beagles for experimental use were fasted one night before the administration of the test drugs. The drugs were suspended in a 0.1% TWEEN 80--0.1M NaCl--50 mM phosphate buffer solution for administration. All the drugs were forcefully administered in an amount of 50 mg/kg using an oral probe for dogs. Three animals were used for each test group. Blood samples were taken 9 times; 0.25, 0.5, 1, 1.5, 2, 4, 6, 9 and 24 hours after the administration. Blood samples of 5 ml were taken at each sampling time using a heparin-treated disposable injection syringe. Each blood was centrifuged at 3000 rpm for 15 minutes to obtain plasma. Drug concentrations in plasma were measured using HPLC and then calculated from a calibration curve for a standard sample.

physchem = format: physicochemical; conditions: water
Method: Solubility in water was measured according to the Pharmacopoeia Japan.

O=C(C(c1ccccc1)c1ccccc1)N1CCN(CC(O)COc2cccc3ncccc23)CC1.O=C(O)/C=C/C(=O)O (stereo not drawn) [compound No. 2, 5-[3-{4-(2,2-diphenylacetyl)piperazin-1-yl}-2-hydroxypropoxy]quinoline fumarate]
concentration at 0.5 h ([1]; po, 100 mg/kg): 18000 ng/mL | concentration at 1 h ([1]; po, 100 mg/kg): 21800 ng/mL | concentration at 2 h ([1]; po, 100 mg/kg): 16000 ng/mL | concentration at 4 h ([1]; po, 100 mg/kg): 13700 ng/mL | IC50 ([2]; vincristine with compound at 0.3 microgram/ml): 0.0569 µg/mL | IC50 ([2]; vincristine with compound at 1 microgram/ml): 0.022 µg/mL | IC50 ([2]; vincristine with compound at 3 microgram/ml): 0.00412 µg/mL | concentration at 0.5 h ([3]; plasma, male beagles, oral 50 mg/kg, 0.5 hr, read-out: Concentration in plasma, Average): 14700 ng/mL | concentration at 1 h ([3]; plasma, male beagles, oral 50 mg/kg, 1 hr, read-out: Concentration in plasma, Average): 13200 ng/mL | concentration at 1.5 h ([3]; plasma, male beagles, oral 50 mg/kg, 1.5 hr, read-out: Concentration in plasma, Average): 12700 ng/mL | concentration at 2 h ([3]; plasma, male beagles, oral 50 mg/kg, 2 hr, read-out: Concentration in plasma, Average): 10500 ng/mL | concentration at 4 h ([3]; plasma, male beagles, oral 50 mg/kg, 4 hr, read-out: Concentration in plasma, Average): 6760 ng/mL | concentration at 6 h ([3]; plasma, male beagles, oral 50 mg/kg, 6 hr, read-out: Concentration in plasma, Average): 3700 ng/mL | concentration at 9 h ([3]; plasma, male beagles, oral 50 mg/kg, 9 hr, read-out: Concentration in plasma, Average): 1210 ng/mL | concentration at 24 h ([3]; plasma, male beagles, oral 50 mg/kg, 24 hr): 30 ng/mL | solubility (physchem): 1400 µg/mL

O=C(C(c1ccccc1)c1ccccc1)N1CCN(CC(O)COc2cccc3ncccc23)CC1 (stereo not drawn) [compound No. 1, 5-[3-{4-(2,2diphenylacetyl)piperazin-1-yl}-2-hydroxypropoxy]quinoline]
concentration at 0.25 h ([3]; in vivo, po, 50 mg/kg): 2460 ng/mL | concentration at 0.5 h ([3]; in vivo, po, 50 mg/kg): 3370 ng/mL | concentration at 1 h ([3]; in vivo, po, 50 mg/kg): 4530 ng/mL | concentration at 1.5 h ([3]; in vivo, po, 50 mg/kg): 4350 ng/mL | concentration at 2 h ([3]; in vivo, po, 50 mg/kg): 4180 ng/mL | concentration at 4 h ([3]; in vivo, po, 50 mg/kg): 2430 ng/mL | concentration at 6 h ([3]; in vivo, po, 50 mg/kg): 1620 ng/mL | concentration at 9 h ([3]; in vivo, po, 50 mg/kg): 440 ng/mL | solubility (physchem): < 1000 µg/mL

CC[C@]1(O)C[C@H]2CN(CCc3c([nH]c4ccccc34)[C@@](C(=O)OC)(c3cc4c(cc3OC)N(C=O)[C@H]3[C@@](O)(C(=O)OC)[C@H](OC(C)=O)[C@]5(CC)C=CCN6CC[C@]43[C@@H]65)C2)C1 [vincristine, reference compound]
IC50 [2]: 0.142 µg/mL (≈ 0.172 µM)

O=C(C(c1ccccc1)c1ccccc1)N1CCN(CC(O)COc2cccc3ncccc23)CC1.O=C(O)CC(O)C(=O)O (stereo not drawn) [compound No. 4, 5-[3-{4-(2,2-diphenylacetyl)piperazin-1-yl)-2-hydroxypropoxy]quinoline malate]
concentration at 0.5 h ([1]; female CDF1 mice, oral 109 mg/kg (equivalent molarity), 0.5 hr, read-out: Concentration in plasma, Average of 3 mice): 14300 ng/mL | concentration at 1 h ([1]; female CDF1 mice, oral 109 mg/kg (equivalent molarity), 1.0 hr, read-out: Concentration in plasma, Average of 3 mice): 11400 ng/mL | concentration at 2 h ([1]; female CDF1 mice, oral 109 mg/kg (equivalent molarity), 2.0 hr, read-out: Concentration in plasma, Average of 3 mice): 11900 ng/mL | concentration at 4 h ([1]; female CDF1 mice, oral 109 mg/kg (equivalent molarity), 4.0 hr, read-out: Concentration in plasma, Average of 3 mice): 5990 ng/mL
